Assays:
[1] = target: Cyclooxygenase; assay: Cyclooxygenase inhibiting effect (prostaglandin E2 formation from 14C-arachidonic acid, seminal vesicular gland microsomes); type: biochemical; conditions: seminal vasicular gland microsomes, prostaglandin E2 radioactivity
Description: (1) Cyclooxygenase inhibiting effect
This assay was carried out by the method described in Russell J. Taylor et al., Biochem. Pharmacol., 25, 2479-2484 (1976).
^14 C-arachidonic acid was reacted with seminal vasicular gland microsomes and the test drugs at various concentrations over a predetermined period of time and the obtained prostaglandin E2 was separated by thin layer chromatography. The radioactivity of prostaglandin E2 was determined by liquid scintillation counter. The IC50 values were calculated by the comparison with the radioactivity of the control.

[2] = target: T1, 5-Lipoxygenase (Cavia porcellus, UniProt A0A286X958); assay: 5-Lipoxygenase inhibiting activity (5-hydroxyeicosatetraenoic acid formation from 14C-arachidonic acid, cytosol fraction of polymorphonuclear leucocytes); type: biochemical; conditions: guinea pig polymorphonuclear leucocyte cytosol, 5-hydroxyeicosatetraenoic acid radioactivity
T1 construct: the polymorphonuclear leucocytes were collected and the cytosol fraction was obtained as an enzyme source; endogenous in cells; host or cells: guinea pig peritoneal polymorphonuclear leucocytes (casein-elicited), cytosol fraction
T1 sequence (A0A286X958 1-674): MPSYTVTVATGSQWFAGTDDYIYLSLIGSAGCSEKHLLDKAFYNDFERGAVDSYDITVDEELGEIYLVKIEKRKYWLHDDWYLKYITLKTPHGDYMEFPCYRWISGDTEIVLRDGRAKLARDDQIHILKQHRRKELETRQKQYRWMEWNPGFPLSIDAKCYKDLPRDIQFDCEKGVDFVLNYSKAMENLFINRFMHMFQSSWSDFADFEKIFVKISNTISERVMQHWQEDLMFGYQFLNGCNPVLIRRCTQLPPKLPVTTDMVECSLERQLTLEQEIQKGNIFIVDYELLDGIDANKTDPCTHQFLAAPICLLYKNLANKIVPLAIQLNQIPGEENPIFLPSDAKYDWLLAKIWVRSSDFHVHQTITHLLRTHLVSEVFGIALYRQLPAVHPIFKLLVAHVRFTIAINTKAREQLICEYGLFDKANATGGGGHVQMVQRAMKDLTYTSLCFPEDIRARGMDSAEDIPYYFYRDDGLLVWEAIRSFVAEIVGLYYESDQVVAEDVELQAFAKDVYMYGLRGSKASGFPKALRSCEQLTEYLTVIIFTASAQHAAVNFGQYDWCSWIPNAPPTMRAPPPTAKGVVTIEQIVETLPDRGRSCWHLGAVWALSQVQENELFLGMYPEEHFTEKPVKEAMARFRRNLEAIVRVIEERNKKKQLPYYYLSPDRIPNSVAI
Description: (2) 5-Lipoxygenase inhibiting activity
This assay was carried out by the method described in Kenkichi Ochi et al., J. Biol. Chem., 258, 5754-5758 (1983).
Casein was injected into the abdominal cavity of a guinea pig, and the polymorphonuclear leucocytes were collected and the cytosol fraction was obtained as an enzyme source. ^14 C-arachidonic acid was reacted with the enzyme and the test drug at various concentrations over a predetermined period of time. The obtained 5-hydroxyeicosatetraenoic acid was separated by thin layer chromatography and the radioactivity was determined. The IC50 values were calculated by the comparison with the radioactivity of the control.

| SMILES | IC50 [1] | IC50 [2] |
| --- | --- | --- |
| COc1ccc(-c2noc(CCNC(=O)C(=Cc3cc(OC)c(O)c(OC)c3)c3ccccn3)c2-c2ccc(OC)cc2)cc1 [Compound 6] | 1380 nM | 620 nM |
| CCOC(=O)C(=Cc1cc(OC)c(O)c(OC)c1)C(=O)NCCc1onc(-c2ccc(OC)cc2)c1-c1ccc(OC)cc1 [Compound 1] | 2870 nM | 1170 nM |
| COCC(=Cc1cc(OC)c(O)c(OC)c1)C(=O)NCCc1onc(-c2ccc(OC)cc2)c1-c1ccc(OC)cc1 [Compound 3] | 1200 nM | 300 nM |
| CCCC(=Cc1cc(OC)c(O)c(OC)c1)C(=O)NCCc1onc(-c2ccc(OC)cc2)c1-c1ccc(OC)cc1 [Compound 4] | 950 nM | 180 nM |
| COc1ccc(-c2noc(CCNC(=O)C(C#N)=Cc3cc(OC)c(O)c(OC)c3)c2-c2ccc(OC)cc2)cc1 [Compound 2] | 4050 nM | 650 nM |

Results, then the molecule that gave them:

| IC50 [1] | IC50 [2] | SMILES |
| --- | --- | --- |
| 1850 nM | 240 nM | COc1ccc(-c2noc(C(C#N)=Cc3cc(OC)c(O)c(OC)c3)c2-c2ccc(OC)cc2)cc1 [Compound 20] |
| 110 nM | 180 nM | COc1ccc(-c2noc(CCNC(=O)C(=Cc3cc(OC)c(O)c(OC)c3)NC(C)=O)c2-c2ccc(OC)cc2)cc1 [Compound 18] |
| 2940 nM | 90 nM | COc1ccc(-c2noc(CCN(CC(=O)O)C(=O)C=CC=Cc3cc(OC)c(O)c(OC)c3)c2-c2ccc(OC)cc2)cc1 [Compound 23] |
| 680 nM | 240 nM | COc1ccc(-c2noc(CCNC(=O)C(C#N)=CC=Cc3cc(OC)c(O)c(OC)c3)c2-c2ccc(OC)cc2)cc1 [Compound 11] |
| 170 nM | 80 nM | COc1ccc(-c2noc(CCNC(=O)C(=Cc3cc(OC)c(O)c(OC)c3)c3cccs3)c2-c2ccc(OC)cc2)cc1 [Compound 7] |
| 4760 nM | 260 nM | COc1ccc(-c2noc(CCNC(=O)C(=Cc3cc(OC)c(O)c(OC)c3)C(=O)N(C)C)c2-c2ccc(OC)cc2)cc1 [Compound 8] |

Source: patent publication US5478856A, “Styrene derivatives and salts thereof” (Taiho Pharmaceutical Co., Ltd., priority 1992, dated 1995)
